Measurements from patent publication US12427134B2, “Methods of reducing the risk of cardiovascular events in a subject with atrial fibrillation and/or atrial flutter” (priority 2019, dated 2025).

Experiments:
[1] = test system: hypertriglyceridemic patients with cardiovascular disease or at high risk for cardiovascular disease; test: REDUCE-IT: total (first and subsequent/recurrent) ischemic events analyses (negative binomial, Andersen-Gill, Wei-Lin-Weissfeld, joint frailty); format: in vivo, human; settings: for Primary composite endpoint, HR (95% CI) / Key secondary composite endpoint, HR (95% CI): modified WLW
Method: The primary outcome for the study was total recurrent events consisting of the composite of cardiovascular death, nonfatal myocardial infarction, nonfatal stroke, coronary revascularization, or hospitalization for unstable angina. Recurrent event analyses were also performed for the key secondary endpoint, a composite of cardiovascular death, non fatal myocardial infarction, or non-fatal stroke. For each of these composite endpoints, the effects of icosapent ethyl in the secondary and primary prevention strata were examined separately.
Demographic and baseline disease characteristics are presented using frequencies and percentages for categorical variables and medians with interquartile ranges for continuous variables. Between treatment group comparisons were derived using the chi-square test for categorical variables and Wilcoxon rank test for continuous variables. All clinical endpoint events used in the efficacy analyses were adjudicated by an independent Clinical Endpoint Committee (CEC) who were blinded to the treatment assignment. Since the primary efficacy endpoint was the time from randomization to the first occurrence of any component of the composite endpoint, and recurrence of such events within each patient is possible, a pre-specified analysis using a Cox proportional-hazard with the counting-process formulation of Andersen and Gill was performed to model the first and all recurrent cardiovascular events. Hazard ratios (HR) and corresponding 95% confidence intervals (CI) are reported from this model. In addition, as a marginal model and an extension of survival models based on the Cox proportional hazard model, the modified Wei-Lin-Weissfeld (WLW) method for analysis of recurrent events in the presence of deaths was carried out as a supportive analysis. In addition, as pre-specified, a recurrent event analysis using the Andersen-Gill and Wei-Lin-Weissfeld methods were carried out for the individual primary event components other than CV death. Though not pre-specified, additional recurrent event analyses were performed for the key secondary endpoint, which is a composite of CV death, non-fatal MI, or non-fatal stroke, and for the primary endpoint and the key secondary endpoint in the primary and secondary prevention strata to explore further the consistency of clinical benefit of icosapent ethyl. In subgroup analyses of the two cardiovascular risk strata (i.e., primary and secondary prevention), site-level discrepancies in cardiovascular risk group assignment occurring at entry and detected during the study (1.8%) were adjusted to conform with documented medical history data prior to randomization. All efficacy analyses were performed according to the intention-to-treat principle. All tests were based on a 2-sided nominal significance level of 5% with no adjustments for multiple comparisons.
The following study was a multi-center, placebo-controlled clinical trial the details of which are described above in Example 1, the REDUCE-IT design. […] The main outcomes were total primary composite endpoint events defined as cardiovascular death, nonfatal myocardial infarction, nonfatal stroke, coronary revascularization, or hospitalization for unstable angina and total key secondary composite endpoint events defined as cardiovascular death, nonfatal myocardial infarction, or nonfatal stroke. In the context of this study, total events refer to any first event as well as any subsequent event. Differences in total events were determined using other statistical models, including Andersen-Gill, Wei-Lin-Weisfeld (Li and Lagakos), both pre-specified, and a post hoc and joint-frailty analysis.
For the present prespecified analysis, the primary outcome was the total of first plus subsequent ischemic events consisting of the composite of cardiovascular death, nonfatal myocardial infarction, nonfatal stroke, coronary revascularization, or hospitalization for unstable angina. […]

[2] = test system: hypertriglyceridemic patients with cardiovascular disease or at high risk for cardiovascular disease; test: REDUCE-IT: post hoc control group response analyses (placebo patients with biomarker increase vs no change/decrease); format: in vivo, human
Description: The objective of the following example was to perform a control group analysis of the ischemic events in patients from the REDUCE-IT trial, as described in Example 1. The study focused on exploring if outcomes were affected by possible malabsorption. If mineral oil in the placebo might have negatively affected statin absorption in some patients, this could have contributed to differences in outcomes between the groups.

[3] = second event, adjusted, reduced dataset
[4] = second event, unadjusted, full dataset
[5] = second event, unadjusted, reduced dataset
[6] = third event, adjusted, full dataset
[7] = third event, adjusted, reduced dataset
[8] = third event, unadjusted, full dataset
[9] = third event, unadjusted, reduced dataset
[10] = negative binomial, adjusted, full dataset
[11] = negative binomial, adjusted, reduced dataset
[12] = negative binomial, unadjusted, full dataset
[13] = negative binomial, unadjusted, reduced dataset
[14] = per 100 patients treated for five years
[15] = per 1000 patients treated for five years
[16] = primary composite endpoint, after reduction, share of overall events in category
[17] = total events including same-day recurrent events, ITT, denominator total number of events in category

CC/C=C\C/C=C\C/C=C\C/C=C\C/C=C\CCCC(=O)OCC [AMR101, eicosapentaenoic acid ethyl ester]
Primary composite endpoint, HR (95% CI) ([1]; second event, adjusted, full dataset): 0.68 | Key secondary composite endpoint, HR (95% CI) [1, 3]: 0.75 | Primary composite endpoint, HR (95% CI) [1, 3]: 0.68 | Key secondary composite endpoint, HR (95% CI) [1, 4]: 0.75 | Primary composite endpoint, HR (95% CI) [1, 4]: 0.69 | Key secondary composite endpoint, HR (95% CI) [1, 5]: 0.75 | Primary composite endpoint, HR (95% CI) [1, 5]: 0.69 | Key secondary composite endpoint, HR (95% CI) [1, 6]: 0.79 | Primary composite endpoint, HR (95% CI) [1, 6]: 0.70 | Key secondary composite endpoint, HR (95% CI) [1, 7]: 0.79 | Primary composite endpoint, HR (95% CI) [1, 7]: 0.69 | Key secondary composite endpoint, HR (95% CI) [1, 8]: 0.79 | Primary composite endpoint, HR (95% CI) [1, 8]: 0.70 | Key secondary composite endpoint, HR (95% CI) [1, 9]: 0.79 | Primary composite endpoint, HR (95% CI) [1, 9]: 0.69 | Total primary endpoint events, rate ratio ([1]; negative binomial model, Example 3): 0.70 | Total key secondary composite endpoint events, HR (95% CI) [1, 10]: 0.71 | Total primary composite endpoint events, RR (95% CI) [1, 10]: 0.69 | Total key secondary composite endpoint events, RR (95% CI) [1, 11]: 0.72 | Total primary composite endpoint events, RR (95% CI) [1, 11]: 0.70 | Total key secondary composite endpoint events, RR (95% CI) [1, 12]: 0.71 | Total primary composite endpoint events, RR (95% CI) [1, 12]: 0.67 | Total key secondary composite endpoint events, RR (95% CI) [1, 13]: 0.71 | Total primary composite endpoint events, RR (95% CI) [1, 13]: 0.68 | Total key secondary endpoint events, HR ([1]; overall): 0.71 | Cardiovascular deaths that could be prevented [1, 14]: 1 | Coronary revascularizations that could be prevented [1, 14]: 8 | Episodes of unstable angina that could be prevented [1, 14]: 2 | Myocardial infarctions that could be prevented [1, 14]: 4 | Strokes that could be prevented [1, 14]: 1 | Cardiovascular deaths that could be prevented [1, 15]: 12 | Coronary revascularizations that could be prevented [1, 15]: 76 | Episodes of hospitalization for unstable angina that could be prevented [1, 15]: 16 | Myocardial infarctions that could be prevented [1, 15]: 42 | Strokes that could be prevented [1, 15]: 14 | Primary endpoint: fatal events, % [1, 16]: (45.0) % | Primary endpoint: total events after reduction, % [1, 16]: (41.0) % | Total key secondary endpoint events, HR ([1]; primary prevention stratum): 0.71 | Total key secondary endpoint events, HR ([1]; secondary prevention stratum): 0.70 | Key Secondary Endpoint Events, % [1, 17]: (42.0) % | Primary Endpoint Events, % [1, 17]: (40.7) % | Key secondary endpoint, HR AMR101 group versus placebo patients with an increase in LDL-C ([2]; LDL-C at one year): 0.80 | Key secondary endpoint, HR AMR101 group versus placebo patients with no change or a decrease in LDL-C ([2]; LDL-C at one year): 0.74 | Primary endpoint, HR AMR101 group versus placebo patients with an increase in LDL-C ([2]; LDL-C at one year): 0.79 | Primary endpoint, HR AMR101 group versus placebo patients with no change or a decrease in LDL-C ([2]; LDL-C at one year): 0.79 | Key secondary endpoint, HR AMR101 group versus placebo patients with an increase in hsCRP ([2]; hsCRP at two years): 0.83 | Key secondary endpoint, HR AMR101 group versus placebo patients with no change or a decrease in hsCRP ([2]; hsCRP at two years): 0.85 | Primary endpoint, HR AMR101 group versus placebo patients with an increase in hsCRP ([2]; hsCRP at two years): 0.79 | Primary endpoint, HR AMR101 group versus placebo patients with no change or a decrease in hsCRP ([2]; hsCRP at two years): 0.83
